# According to PubChem BioAssay AID1845200 (Molecular Pharmacology Branch, DTP, NCI, 2023):
# Activity calls are given as the source filed them. The calls were made as follows: active = viability on the fitted dose curve at most 10% of control; inactive = the rest.
# Test system: ASPS-1 complex tumor spheroids, viability
# Assay: Anticancer human tumor ASPS-1 cell line growth inhibition;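 also: spheroids exposed to agents for 7 days after 3 days of growth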;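 as to viability, T/C: 100% = DMSO vehicle treated spheroids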
# Conditions: for IC50: curve of first compound; for viability, T/C: stronger effect = lower value
# How it was run: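 Complex spheroids of malignant cells with endothelial cells and mesenchymal stem cells; agents alone or combined, from near clinical Cmax (or 10 microM if unknown) down in half-log steps, 0.25% DMSO final.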
# [1] = second compound 1 µM, first compound 0.0949 µM
# [2] = second compound 1 µM, first compound 0.3 µM
# [3] = second compound 1 µM, first compound 0.949 µM
# [4] = second compound 1 µM, first compound 3 µM
# [5] = second compound 3.16 µM, first compound 0.0949 µM
# [6] = second compound 3.16 µM, first compound 0.3 µM
# [7] = second compound 3.16 µM, first compound 0.949 µM
# [8] = second compound 3.16 µM, first compound 3 µM
# [9] = second compound 10 µM, first compound 0.0949 µM
# [10] = second compound 10 µM, first compound 0.3 µM
# [11] = second compound 10 µM, first compound 0.949 µM
# [12] = second compound 10 µM, first compound 3 µM
# [13] = second compound 31.6 µM, first compound 0.0949 µM
# [14] = second compound 31.6 µM, first compound 0.3 µM
# [15] = second compound 31.6 µM, first compound 0.949 µM
# [16] = second compound 31.6 µM, first compound 3 µM
# [17] = second compound 100 µM, first compound 0.0949 µM
# [18] = second compound 100 µM, first compound 0.3 µM
# [19] = second compound 100 µM, first compound 0.949 µM
# [20] = second compound 100 µM, first compound 3 µM
structure (smiles),measurement,setting,value
Cn1ncnc1[C@H]1c2n[nH]c(=O)c3cc(F)cc(c23)N[C@@H]1c1ccc(F)cc1 + Cn1nnc2c(C(N)=O)ncn2c1=O,IC50,second compound 1 µM,> 3 µM
same,IC50,second compound 3.16 µM,> 3 µM
same,IC50,second compound 10 µM,> 3 µM
same,IC50,second compound 31.6 µM,> 3 µM
same,IC50,second compound 100 µM,> 3 µM
same,"viability, T/C","second compound 1 µM, first compound 0.00949 µM",98.8%
same,"viability, T/C","second compound 1 µM, first compound 0.03 µM",98.9%
same,"viability, T/C",[1],97.5%
same,"viability, T/C",[2],103%
same,"viability, T/C",[3],96.3%
same,"viability, T/C",[4],74.1%
same,"viability, T/C","second compound 3.16 µM, first compound 0.00949 µM",99.7%
same,"viability, T/C","second compound 3.16 µM, first compound 0.03 µM",95%
same,"viability, T/C",[5],96.2%
same,"viability, T/C",[6],95.8%
same,"viability, T/C",[7],91.1%
same,"viability, T/C",[8],67.8%
same,"viability, T/C","second compound 10 µM, first compound 0.00949 µM",86.2%
same,"viability, T/C","second compound 10 µM, first compound 0.03 µM",89.6%
same,"viability, T/C",[9],80.1%
same,"viability, T/C",[10],83.4%
same,"viability, T/C",[11],71.7%
same,"viability, T/C",[12],61.1%
same,"viability, T/C","second compound 31.6 µM, first compound 0.00949 µM",78.5%
same,"viability, T/C","second compound 31.6 µM, first compound 0.03 µM",76.3%
same,"viability, T/C",[13],76%
same,"viability, T/C",[14],67%
same,"viability, T/C",[15],56.5%
same,"viability, T/C",[16],53.2%
same,"viability, T/C","second compound 100 µM, first compound 0.00949 µM",56.4%
same,"viability, T/C","second compound 100 µM, first compound 0.03 µM",50.8%
same,"viability, T/C",[17],52.2%
same,"viability, T/C",[18],58.7%
same,"viability, T/C",[19],54.5%
same,"viability, T/C",[20],50.8%
O=C(c1cc(Cc2n[nH]c(=O)c3ccccc23)ccc1F)N1CCN(C(=O)C2CC2)CC1 + Cn1nnc2c(C(N)=O)ncn2c1=O,IC50,second compound 1 µM,> 30 µM
same,IC50,second compound 3.16 µM,> 30 µM
same,IC50,second compound 10 µM,> 30 µM
same,IC50,second compound 31.6 µM,> 30 µM
same,IC50,second compound 100 µM,3.4 µM
same,"viability, T/C",[1],94.4%
same,"viability, T/C",[2],83.3%
same,"viability, T/C",[3],92.6%
same,"viability, T/C",[4],82.5%
same,"viability, T/C","second compound 1 µM, first compound 9.49 µM",95.6%
same,"viability, T/C","second compound 1 µM, first compound 30 µM",79.2%
same,"viability, T/C",[5],97.6%
same,"viability, T/C",[6],94.2%
same,"viability, T/C",[7],115%
same,"viability, T/C",[8],95.6%
same,outcome,"second compound 3.16 µM, first compound 9.49 µM",inactive
same,"viability, T/C","second compound 3.16 µM, first compound 30 µM",76%
same,"viability, T/C",[9],85.8%
same,"viability, T/C",[10],82.4%
same,"viability, T/C",[11],82.8%
same,"viability, T/C",[12],78.1%
same,"viability, T/C","second compound 10 µM, first compound 9.49 µM",76.7%
same,"viability, T/C","second compound 10 µM, first compound 30 µM",75.5%
same,"viability, T/C",[13],78.8%
same,"viability, T/C",[14],70.5%
same,"viability, T/C",[15],81.9%
same,"viability, T/C",[16],72.3%
same,"viability, T/C","second compound 31.6 µM, first compound 9.49 µM",72.4%
same,"viability, T/C","second compound 31.6 µM, first compound 30 µM",58.6%
same,"viability, T/C",[17],68.7%
same,"viability, T/C",[18],61.1%
same,"viability, T/C",[19],51%
same,"viability, T/C",[20],54.3%
same,"viability, T/C","second compound 100 µM, first compound 9.49 µM",44.3%
same,"viability, T/C","second compound 100 µM, first compound 30 µM",49.1%
[2H]c1nc(C)nc([2H])c1-c1cc(NC[C@@H](C)c2cccc3c(C(=O)NC)ccnc23)ncn1 + Cn1nnc2c(C(N)=O)ncn2c1=O,IC50,second compound 1 µM,> 10 µM
same,IC50,second compound 3.16 µM,> 10 µM
same,IC50,second compound 10 µM,> 10 µM
same,IC50,second compound 31.6 µM,> 10 µM
same,IC50,second compound 100 µM,> 10 µM
same,"viability, T/C","second compound 1 µM, first compound 0.0316 µM",106%
same,"viability, T/C","second compound 1 µM, first compound 0.1 µM",100%
same,"viability, T/C","second compound 1 µM, first compound 0.316 µM",98.3%
same,"viability, T/C","second compound 1 µM, first compound 1 µM",101%
same,"viability, T/C","second compound 1 µM, first compound 3.16 µM",95.8%
same,"viability, T/C","second compound 1 µM, first compound 10 µM",99.2%
same,"viability, T/C","second compound 3.16 µM, first compound 0.0316 µM",104%
same,"viability, T/C","second compound 3.16 µM, first compound 0.1 µM",104%
same,"viability, T/C","second compound 3.16 µM, first compound 0.316 µM",103%
same,"viability, T/C","second compound 3.16 µM, first compound 1 µM",104%
same,"viability, T/C","second compound 3.16 µM, first compound 3.16 µM",101%
same,"viability, T/C","second compound 3.16 µM, first compound 10 µM",98.3%
same,"viability, T/C","second compound 10 µM, first compound 0.0316 µM",88.4%
same,"viability, T/C","second compound 10 µM, first compound 0.1 µM",93.2%
same,"viability, T/C","second compound 10 µM, first compound 0.316 µM",96.4%
same,"viability, T/C","second compound 10 µM, first compound 1 µM",90.1%
same,"viability, T/C","second compound 10 µM, first compound 3.16 µM",89.5%
same,"viability, T/C","second compound 10 µM, first compound 10 µM",89.7%
same,"viability, T/C","second compound 31.6 µM, first compound 0.0316 µM",79.8%
same,"viability, T/C","second compound 31.6 µM, first compound 0.1 µM",80.2%
same,"viability, T/C","second compound 31.6 µM, first compound 0.316 µM",81.1%
same,"viability, T/C","second compound 31.6 µM, first compound 1 µM",79.7%
same,"viability, T/C","second compound 31.6 µM, first compound 3.16 µM",78.3%
same,"viability, T/C","second compound 31.6 µM, first compound 10 µM",76.4%
same,"viability, T/C","second compound 100 µM, first compound 0.0316 µM",74.2%
same,"viability, T/C","second compound 100 µM, first compound 0.1 µM",72.5%
same,"viability, T/C","second compound 100 µM, first compound 0.316 µM",74.5%
same,"viability, T/C","second compound 100 µM, first compound 1 µM",66.5%
same,"viability, T/C","second compound 100 µM, first compound 3.16 µM",68.4%
same,"viability, T/C","second compound 100 µM, first compound 10 µM",65.8%
